For 19 molecules, IC50 and inhibition results are on record in patent US10858362B2, “Imidazopyrazinones as PDE1 inhibitors” (H. Lundbeck A/S, priority 2015, dated 2020).

Holding throughout (format): biochemical
One experiment has as its target PDE1C (Homo sapiens (Human), UniProt Q14123). Nature of the experiment: PDE1 inhibition assay, PDE1C. As to conditions: for IC50: 15 nM tritium labelled cAMP; for inhibition at 10 µM: read-out: PDE1C, % inhibition (at 10 μM). The procedure: (§1) Reactions were initiated by addition of the cyclic nucleotide substrate, and reactions were allowed to proceed for 1 h at room temperature before being terminated through mixing with 20 μL (0.2 mg) yttrium silicate SPA beads (PerkinElmer). The beads were allowed to settle for 1 h in the dark before the plates were counted in a Wallac 1450 Microbeta counter.

For another experiment, the target named is PDE1B (Homo sapiens (Human), UniProt Q01064). Nature of the experiment: PDE1 inhibition assay, PDE1B. As to conditions: for IC50: 15 nM tritium labelled cAMP. The procedure: as §1
The target in a further experiment is PDE9 (Homo sapiens (Human), UniProt O76083). As to the kind of experiment: PDE9 inhibition assay. The method in brief: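 Human PDE9 in 50 mM HEPES pH 7.6, 10 mM MgCl2, 0.02% Tween20, enzyme set to convert 20-25% of 10 nM ^3H-cAMP substrate; inhibitors at varying amounts. 1 hr incubation, stopped with yttrium silicate SPA beads, settled 1 hr in dark, then scintillation counted.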

The target of a further experiment is PDE1A (Homo sapiens (Human), UniProt P54750). As to the kind of experiment: PDE1 inhibition assay, PDE1A. As to conditions: for IC50: 15 nM tritium labelled cAMP; for inhibition at 10 µM: read-out: PDE1A, % inhibition (at 10 μM). The procedure: Reactions were initiated by addition of the cyclic nucleotide substrate, and reactions were allowed to proceed for 1 h at room temperature before being terminated through mixing with 20 μL (0.2 mg) yttrium silicate SPA beads (PerkinElmer).

By IC50 is commonly meant the point on the concentration scale where inhibition reaches its midpoint. The low end stands for inhibition by little substance, the high end for a need for much substance. What is called inhibition is the drop in the measured response relative to a control, in per cent.

Chain of PDE9 (O76083 whole entry): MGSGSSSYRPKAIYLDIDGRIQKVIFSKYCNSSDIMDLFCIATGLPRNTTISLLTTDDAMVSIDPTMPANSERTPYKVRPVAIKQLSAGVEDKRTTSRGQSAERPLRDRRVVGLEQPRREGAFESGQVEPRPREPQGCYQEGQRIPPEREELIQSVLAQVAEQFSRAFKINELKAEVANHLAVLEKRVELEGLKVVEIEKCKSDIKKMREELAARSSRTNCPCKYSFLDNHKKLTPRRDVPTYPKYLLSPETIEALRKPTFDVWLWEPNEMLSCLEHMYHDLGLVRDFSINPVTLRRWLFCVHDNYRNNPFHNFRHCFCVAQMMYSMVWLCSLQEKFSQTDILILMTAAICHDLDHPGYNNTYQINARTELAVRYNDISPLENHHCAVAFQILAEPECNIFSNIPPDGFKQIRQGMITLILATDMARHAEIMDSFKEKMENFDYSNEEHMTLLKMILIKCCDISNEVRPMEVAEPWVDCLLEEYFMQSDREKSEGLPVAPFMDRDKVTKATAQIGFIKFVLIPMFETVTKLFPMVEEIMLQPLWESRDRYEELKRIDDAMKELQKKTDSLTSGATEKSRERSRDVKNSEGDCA
Chain of PDE1C (Q14123 whole entry): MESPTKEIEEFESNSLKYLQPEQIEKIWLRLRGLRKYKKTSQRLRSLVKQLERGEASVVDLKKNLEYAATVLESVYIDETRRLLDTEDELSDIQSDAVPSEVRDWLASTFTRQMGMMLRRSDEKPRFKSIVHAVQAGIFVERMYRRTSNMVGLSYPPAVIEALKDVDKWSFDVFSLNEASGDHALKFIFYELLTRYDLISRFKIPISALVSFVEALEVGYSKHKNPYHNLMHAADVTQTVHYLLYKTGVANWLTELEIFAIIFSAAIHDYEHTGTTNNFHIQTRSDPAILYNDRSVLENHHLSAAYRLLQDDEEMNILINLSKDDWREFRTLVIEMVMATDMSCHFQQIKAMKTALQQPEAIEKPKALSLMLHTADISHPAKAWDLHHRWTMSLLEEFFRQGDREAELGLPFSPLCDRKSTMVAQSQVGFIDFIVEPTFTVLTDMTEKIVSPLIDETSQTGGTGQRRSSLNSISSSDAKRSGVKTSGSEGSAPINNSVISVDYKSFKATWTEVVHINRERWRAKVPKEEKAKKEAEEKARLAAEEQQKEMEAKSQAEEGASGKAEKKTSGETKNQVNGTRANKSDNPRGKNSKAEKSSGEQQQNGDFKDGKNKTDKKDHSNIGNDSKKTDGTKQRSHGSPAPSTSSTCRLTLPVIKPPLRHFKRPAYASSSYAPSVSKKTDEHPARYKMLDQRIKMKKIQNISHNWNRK
Chain of PDE1B (Q01064 whole entry): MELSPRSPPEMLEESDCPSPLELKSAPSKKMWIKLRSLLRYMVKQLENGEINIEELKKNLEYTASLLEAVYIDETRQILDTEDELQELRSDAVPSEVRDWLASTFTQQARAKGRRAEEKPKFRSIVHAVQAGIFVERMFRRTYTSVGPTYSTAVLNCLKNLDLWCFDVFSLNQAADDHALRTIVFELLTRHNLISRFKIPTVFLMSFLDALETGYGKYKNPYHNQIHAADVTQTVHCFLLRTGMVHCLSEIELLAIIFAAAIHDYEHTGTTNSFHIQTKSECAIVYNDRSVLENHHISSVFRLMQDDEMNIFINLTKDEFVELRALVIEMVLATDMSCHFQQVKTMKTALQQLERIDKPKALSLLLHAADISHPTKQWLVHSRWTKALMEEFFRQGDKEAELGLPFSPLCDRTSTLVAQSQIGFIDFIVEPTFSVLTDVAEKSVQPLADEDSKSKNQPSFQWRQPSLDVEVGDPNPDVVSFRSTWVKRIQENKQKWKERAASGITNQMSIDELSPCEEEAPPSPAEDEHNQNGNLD
Chain of PDE1A (P54750 whole entry): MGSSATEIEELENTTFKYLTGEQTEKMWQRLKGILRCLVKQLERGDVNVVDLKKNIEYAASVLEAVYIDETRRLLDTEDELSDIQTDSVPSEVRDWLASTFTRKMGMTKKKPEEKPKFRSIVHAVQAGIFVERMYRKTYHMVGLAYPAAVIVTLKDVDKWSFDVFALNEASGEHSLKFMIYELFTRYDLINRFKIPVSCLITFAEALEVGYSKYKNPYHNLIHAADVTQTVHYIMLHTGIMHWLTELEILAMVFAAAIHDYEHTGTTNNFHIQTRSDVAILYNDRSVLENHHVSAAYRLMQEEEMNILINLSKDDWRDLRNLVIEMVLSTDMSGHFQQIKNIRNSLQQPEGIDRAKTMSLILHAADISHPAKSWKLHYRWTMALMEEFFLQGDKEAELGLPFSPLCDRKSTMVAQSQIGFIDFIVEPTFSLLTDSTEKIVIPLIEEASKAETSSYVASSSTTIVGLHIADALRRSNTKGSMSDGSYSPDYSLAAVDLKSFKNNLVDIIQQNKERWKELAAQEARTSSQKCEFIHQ

Turning to `COc1ccc(Cn2c(C)cn3c(C4CCOCC4)ncc3c2=O)cc1Cl` [Example 51, 7-(3-chloro-4-methoxybenzyl)-6-methyl-3-(tetrahydro-2H-pyran-4-yl)imidazo[1,5-a]pyrazin-8(7H)-one], the half-inhibitory concentration (IC50) came out at 46 nM on PDE1C, 36 nM at PDE1B and 199 nM against PDE1A. Moreover, the inhibition at 10 µM against PDE9 is 1%.
`Cc1cn2c(C3CCOCC3)ncc2c(=O)n1Cc1ccc(N)cc1` [Example 52, 7-(4-aminobenzyl)-6-methyl-3-(tetrahydro-2H-pyran-4-yl)imidazo[1,5-a]pyrazin-8(7H)-one]: the inhibition at 1 µM came out at 10% on PDE1C (read-out: PDE1C, % inhibition (at 1 μM)) and 0% at PDE1A (read-out: PDE1A, % inhibition (at 1 μM)). For the same molecule, the half-maximal inhibitory concentration (IC50) against PDE1B is 388 nM. In addition, on PDE9, the inhibition at 10 µM is -3%.
In the case of `Cc1cn2c(C3CCOCC3)ncc2c(=O)n1Cc1ccc(O)cc1` [Example 53, 7-(4-hydroxybenzyl)-6-methyl-3-(tetrahydro-2H-pyran-4-yl)imidazo[1,5-a]pyrazin-8(7H)-one], the IC50 against PDE1C is 84 nM; on PDE1B it was 35 nM; at PDE1A, 401 nM. Further, on PDE9, the inhibition at 10 µM is -41%.
In the same order, the values of `CCc1cn2c(C3CCOCC3)ncc2c(=O)n1Cc1cccc(F)c1` [Example 54, 6-ethyl-7-(3-fluorobenzyl)-3-(tetrahydro-2H-pyran-4-yl)imidazo[1,5-a]pyrazin-8(7H)-one] are 12 nM, 53 nM, 62 nM and 23%.
For `CCCc1ncc2c(=O)n(Cc3ccc(OC)cc3)c(C)cn12` [Example 56, 7-(4-methoxybenzyl)-6-methyl-3-propylimidazo[1,5-a]pyrazin-8(7H)-one], the values for the half-inhibitory concentration (IC50) against PDE1C, at PDE1B and on PDE1A were 43 nM, 21 nM and 65 nM, respectively. Also, on PDE9, the inhibition at 10 µM came out at 7%.
Turning to `COc1ccc(Cn2c(C)cn3c(C4CCOCC4)ncc3c2=O)cn1` [Example 57, 7-((6-methoxypyridin-3-yl)methyl)-6-methyl-3-(tetrahydro-2H-pyran-4-yl)imidazo[1,5-a]pyrazin-8(7H)-one], the IC50 on PDE1C was 84 nM; against PDE1B, 26 nM; against PDE1A it was 45 nM. In addition, the inhibition at 10 µM against PDE9 is -5%.
For the molecule `Cc1cn2c(C3CCOCC3)ncc2c(=O)n1C` [Example 58, 6,7-dimethyl-3-(tetrahydro-2H-pyran-4-yl)imidazo[1,5-a]pyrazin-8(7H)-one], the inhibition at 10 µM came to 44% on PDE1C, 36% at PDE9 and 58% at PDE1A. This molecule returned an IC50 against PDE1B of 1770 nM.
As for `CCn1c(C)cn2c(C3CCOCC3)ncc2c1=O` [Example 59, 7-ethyl-6-methyl-3-(tetrahydro-2H-pyran-4-yl)imidazo[1,5-a]pyrazin-8(7H)-one], the half-maximal inhibitory concentration (IC50) turned out to be 1740 nM against PDE1C, 496 nM against PDE1B and 2330 nM on PDE1A. The inhibition at 10 µM against PDE9 is -13%.
In the same order, the values of `CCCn1c(C)cn2c(C3CCOCC3)ncc2c1=O` [Example 60, 6-methyl-7-propyl-3-(tetrahydro-2H-pyran-4-yl)imidazo[1,5-a]pyrazin-8(7H)-one] are 423 nM, 221 nM, 810 nM and -13%.
With `Cc1cn2c(C3CCOCC3)ncc2c(=O)n1C(C)C` [Example 61, 7-isopropyl-6-methyl-3-(tetrahydro-2H-pyran-4-yl)imidazo[1,5-a]pyrazin-8(7H)-one], the inhibition at 10 µM was found to be 47% on PDE1C; 50% on PDE1B (read-out: PDE1B, % inhibition (at 10 μM)); 4% at PDE9; 4% at PDE1A.
Consider `Cc1cn2c(C3CCOCC3)ncc2c(=O)n1CCC(C)C` [Example 62, 7-isopentyl-6-methyl-3-(tetrahydro-2H-pyran-4-yl)imidazo[1,5-a]pyrazin-8(7H)-one], for which the 50% inhibitory concentration (IC50) on PDE1C was 93 nM; at PDE1B, 558 nM; against PDE1A, 1080 nM. The inhibition at 10 µM against PDE9 was found to be 7%.
In the same order, the values of `Cc1cn2c(C3CCOCC3)ncc2c(=O)n1CC1CCCC1` [Example 63, 7-(cyclopentylmethyl)-6-methyl-3-(tetrahydro-2H-pyran-4-yl)imidazo[1,5-a]pyrazin-8(7H)-one] are 17 nM, 82 nM, 183 nM and -3%.
`Cc1cn2c(C3CCOCC3)ncc2c(=O)n1Cc1ccccc1C#N` [Example 64, 2-((6-methyl-8-oxo-3-(tetrahydro-2H-pyran-4-yl)imidazo[1,5-a]pyrazin-7(8H)-yl)methyl)benzonitrile]: the results for the IC50 against PDE1C, against PDE1B and at PDE1A were 103 nM, 528 nM and 624 nM, respectively. Further, the inhibition at 10 µM against PDE9 was found to be 11%.
Consider `Cc1cn2c(C3CCOCC3)ncc2c(=O)n1CC1CCCCCC1` [Example 65, 7-(cycloheptylmethyl)-6-methyl-3-(tetrahydro-2H-pyran-4-yl)imidazo[1,5-a]pyrazin-8(7H)-one], for which the IC50 is 5 nM against PDE1C, 6 nM against PDE1B and 10 nM on PDE1A. For the same molecule, on PDE9, the inhibition at 10 µM worked out at 11%.
Consider `CO[C@H]1CC[C@@H](Cn2c(C)cn3c(C4CCOCC4)ncc3c2=O)CC1` [Example 67, 7-(((cis)-4-methoxycyclohexyl)methyl)-6-methyl-3-(tetrahydro-2H-pyran-4-yl)imidazo[1,5-a]pyrazin-8(7H)-one], for which the values for the IC50 at PDE1C, against PDE1B and on PDE1A were 307 nM, 87 nM and 234 nM, respectively. Moreover, at PDE9, the inhibition at 10 µM came to 10%.
In the same order, the values of `CO[C@H]1CC[C@H](Cn2c(C)cn3c(C4CCOCC4)ncc3c2=O)CC1` [Example 68, 7-(((trans)-4-methoxycyclohexyl)methyl)-6-methyl-3-(tetrahydro-2H-pyran-4-yl)imidazo[1,5-a]pyrazin-8(7H)-one] are 1860 nM, 127 nM, 323 nM and 5%.
On to `COc1ccc(Cn2c(C)cn3c(C4CCOCC4C)ncc3c2=O)cc1` (stereo not shown) [Example 69, 7-(4-methoxybenzyl)-6-methyl-3-(3-methyltetrahydro-2H-pyran-4-yl)imidazo[1,5-a]pyrazin-8(7H)-one], for which the IC50 was 24 nM against PDE1C, 8 nM on PDE1B and 13 nM against PDE1A. Besides, the inhibition at 10 µM at PDE9 turned out to be 2%.
Take `COc1ccc(Cn2c(C)cn3c([C@@]4(C)C[C@@H]5CC[C@H]4O5)ncc3c2=O)cc1` [Example 70, 7-(4-methoxybenzyl)-6-methyl-3-((1R,2R,4S)-2-methyl-7-oxabicyclo[2.2.1]heptan-2-yl)imidazo[1,5-a]pyrazin-8(7H)-one]: the IC50 at PDE1C was found to be 28 nM; against PDE1B, 17 nM; at PDE1A, 29 nM. Moreover, the inhibition at 10 µM at PDE9 was -11%.
As for `COc1ccc(Cn2c(C)cn3c([C@@H](C)c4ccccc4)ncc3c2=O)cc1` [Example 71, (S)-7-(4-methoxybenzyl)-6-methyl-3-(1-phenylethyl)imidazo[1,5-a]pyrazin-8(7H)-one], the IC50 at PDE1C came out at 538 nM; against PDE1B it was 238 nM; against PDE1A, 211 nM. The inhibition at 10 µM at PDE9 worked out at 13%.
